# Earlier results, collected in US20220073443A1, “CANNABINOID FORMULATIONS AND METHODS OF MAKING SAME” (BOTANECO INC., priority 2018, published 2022).
# Settings: consumed by smoking marihuana; average
structure (smiles),measurement,value
"CCCCCc1cc(O)c2c(c1)OC(C)(C)[C@@H]1CCC(C)=C[C@@H]21 [Δ^9-THC, Δ^9-tetrahydrocannabinol]",bioavailability of pulmonary-delivered Δ9-THC,~30%
